Reference: ChEMBL document CHEMBL1201862, “PubChem BioAssay data set” (2004)
Active and inactive are the calls of the source.

Key:
[1] = THP-1 cell cytotoxicity, cytotoxicity control, set 4 (AID 504911); type: functional; conditions: Mycobacterium tuberculosis
Genome polyprotein = Genome polyprotein (dengue virus type 2, UniProt P29990); experiment: Dengue-2 NS5 methyltransferase inhibitors, primary screen, biochemical, confirmation dose response (AID 588689); type: functional
[2] = target: T1, Polyadenylate-binding protein 1 (Homo sapiens, UniProt P11940); experiment: PABP1 MLLE–PAM2 interaction inhibitors, dose response, miRNA deadenylation inhibitor project, biochemical, fluorescence polarization, Cy5-PAM2 peptide, secondary (AID 602260); type: functional; conditions: read-out: IC50_Mean
[3] = target: Mitochondrial peptide methionine sulfoxide reductase (Bos taurus, UniProt P54149); experiment: Absorbance-based biochemical high throughput dose response assay for activators of Methionine sulfoxide reductase A (MsrA).; type: functional
[4] = target: T1, Polyadenylate-binding protein 1; experiment: PABP1 MLLE–PAM2 binding inhibitor potency, dose response, biochemical, fluorescence polarization, FITC-PAM2 peptide (AID 602259); type: functional; conditions: read-out: IC50_Mean
Coagulation factor XII = target: T2, Coagulation factor XII (Homo sapiens, UniProt P00748); type: functional;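 note: activated factor XIIa alpha cleaving a fluorogenic AMC peptide substrate; inhibitor potency from loss of enzyme activity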
T2 sequence (P00748 whole entry): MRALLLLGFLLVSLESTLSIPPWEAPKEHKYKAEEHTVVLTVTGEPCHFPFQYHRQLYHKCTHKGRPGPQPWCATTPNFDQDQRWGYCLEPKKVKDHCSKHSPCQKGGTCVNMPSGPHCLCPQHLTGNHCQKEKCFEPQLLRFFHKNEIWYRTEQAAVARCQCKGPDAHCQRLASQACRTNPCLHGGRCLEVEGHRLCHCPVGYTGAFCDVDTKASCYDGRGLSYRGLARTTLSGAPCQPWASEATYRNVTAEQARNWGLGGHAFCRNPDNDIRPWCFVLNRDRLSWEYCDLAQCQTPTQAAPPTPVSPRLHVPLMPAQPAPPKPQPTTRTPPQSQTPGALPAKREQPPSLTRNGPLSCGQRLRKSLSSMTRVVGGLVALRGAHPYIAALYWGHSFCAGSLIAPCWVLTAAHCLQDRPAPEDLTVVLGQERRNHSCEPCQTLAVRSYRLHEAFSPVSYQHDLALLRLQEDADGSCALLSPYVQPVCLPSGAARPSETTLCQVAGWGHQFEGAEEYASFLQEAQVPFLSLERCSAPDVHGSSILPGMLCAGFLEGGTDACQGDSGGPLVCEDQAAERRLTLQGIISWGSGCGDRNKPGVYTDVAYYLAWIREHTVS

[5] = target: DNA dC->dU-editing enzyme APOBEC-3G (Homo sapiens, UniProt Q9HC16); experiment: APOBEC3G deaminase inhibitors, SAR follow-up, biochemical, fluorescence, single-stranded DNA substrate (AID 602136); type: functional; conditions: read-out: IC50_Mean
[6] = target: DNA dC->dU-editing enzyme APOBEC-3A (Homo sapiens, UniProt P31941); experiment: SAR analysis of small molecule inhibitors of APOBEC3A DNA Deaminase via a fluorescence-based single-stranded DNA deaminase assay.; type: functional; conditions: read-out: IC50_Mean
[7] = target: T3, Rac GTPase-activating protein 1 (Homo sapiens, UniProt Q9H0H5); experiment: MgcRacGAP GTPase-activating activity inhibitors, confirmation, biochemical, ADP Hunter fluorescence, primary and confirmatory (AID 624330); type: functional
T3 sequence (Q9H0H5 whole entry): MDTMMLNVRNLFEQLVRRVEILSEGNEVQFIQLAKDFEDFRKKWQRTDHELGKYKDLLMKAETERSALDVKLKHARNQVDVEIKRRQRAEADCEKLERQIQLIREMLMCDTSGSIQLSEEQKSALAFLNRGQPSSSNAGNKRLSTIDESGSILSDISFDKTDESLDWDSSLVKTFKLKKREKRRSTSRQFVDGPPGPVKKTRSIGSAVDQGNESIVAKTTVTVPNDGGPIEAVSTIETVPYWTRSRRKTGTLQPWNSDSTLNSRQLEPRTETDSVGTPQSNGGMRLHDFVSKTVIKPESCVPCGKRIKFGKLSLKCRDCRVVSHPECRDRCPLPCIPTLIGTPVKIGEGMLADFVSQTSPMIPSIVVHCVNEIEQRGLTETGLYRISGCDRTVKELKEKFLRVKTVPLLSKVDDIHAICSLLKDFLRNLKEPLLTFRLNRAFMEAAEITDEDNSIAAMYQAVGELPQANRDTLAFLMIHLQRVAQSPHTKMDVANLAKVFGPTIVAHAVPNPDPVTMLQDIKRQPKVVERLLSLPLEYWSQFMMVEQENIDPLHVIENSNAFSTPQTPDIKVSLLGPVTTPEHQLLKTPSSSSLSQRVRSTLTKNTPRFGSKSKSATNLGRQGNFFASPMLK

Vero = experiment: cells; type: functional; conditions: Chlorocebus sabaeus
Melanocortin receptor 4 = Melanocortin receptor 4 (Homo sapiens, UniProt P32245); experiment: MC4R antagonist potency on cAMP, dose response, cell-based, TR-FRET, biased antagonists (AID 602298); type: functional;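 note: antagonist potency against agonist-stimulated cAMP production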
[8] = nonselective inhibitors of cellular cAMP signaling, dose response, counter-screen for MC4R biased antagonist project, cell-based, TR-FRET cAMP detection (AID 602305); type: functional;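 note: U2OS cells stimulated with forskolin near its EC80 as the cAMP inducer; potency is for inhibition of forskolin-stimulated cAMP signaling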
Cytochrome P450 3A4 = Cytochrome P450 3A4 (Homo sapiens, UniProt P08684); conditions: Potency;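 note: confirmatory qHTS run detecting inhibitors and substrates of CYP3A4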
[9] = target: Aryl hydrocarbon receptor (Homo sapiens, UniProt P35869); conditions: Potency;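 note: confirmatory quantitative high-throughput screen measuring activation of the AhR signaling pathway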
Chain of Aryl hydrocarbon receptor (P35869 whole entry): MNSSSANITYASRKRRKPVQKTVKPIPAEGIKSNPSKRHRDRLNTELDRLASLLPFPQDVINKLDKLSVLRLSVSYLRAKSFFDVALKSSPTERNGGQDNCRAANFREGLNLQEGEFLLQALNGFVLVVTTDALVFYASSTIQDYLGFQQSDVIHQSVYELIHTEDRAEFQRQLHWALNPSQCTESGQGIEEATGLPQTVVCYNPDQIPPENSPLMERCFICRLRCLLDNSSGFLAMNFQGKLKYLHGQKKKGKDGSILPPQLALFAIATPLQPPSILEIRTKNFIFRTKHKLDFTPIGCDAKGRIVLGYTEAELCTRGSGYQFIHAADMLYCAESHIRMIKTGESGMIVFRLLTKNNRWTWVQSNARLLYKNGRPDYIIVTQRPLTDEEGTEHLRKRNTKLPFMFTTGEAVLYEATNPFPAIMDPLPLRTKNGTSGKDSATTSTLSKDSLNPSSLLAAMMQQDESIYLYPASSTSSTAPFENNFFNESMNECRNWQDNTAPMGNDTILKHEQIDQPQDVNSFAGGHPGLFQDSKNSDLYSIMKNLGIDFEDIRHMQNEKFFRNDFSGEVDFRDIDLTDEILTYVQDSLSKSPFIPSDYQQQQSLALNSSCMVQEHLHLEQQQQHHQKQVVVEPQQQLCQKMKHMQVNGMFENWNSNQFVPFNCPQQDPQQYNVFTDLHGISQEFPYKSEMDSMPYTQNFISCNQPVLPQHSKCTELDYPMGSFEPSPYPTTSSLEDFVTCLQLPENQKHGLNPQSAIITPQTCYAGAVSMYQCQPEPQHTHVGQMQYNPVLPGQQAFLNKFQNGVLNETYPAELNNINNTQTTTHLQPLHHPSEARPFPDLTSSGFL

T1 sequence (P11940 whole entry): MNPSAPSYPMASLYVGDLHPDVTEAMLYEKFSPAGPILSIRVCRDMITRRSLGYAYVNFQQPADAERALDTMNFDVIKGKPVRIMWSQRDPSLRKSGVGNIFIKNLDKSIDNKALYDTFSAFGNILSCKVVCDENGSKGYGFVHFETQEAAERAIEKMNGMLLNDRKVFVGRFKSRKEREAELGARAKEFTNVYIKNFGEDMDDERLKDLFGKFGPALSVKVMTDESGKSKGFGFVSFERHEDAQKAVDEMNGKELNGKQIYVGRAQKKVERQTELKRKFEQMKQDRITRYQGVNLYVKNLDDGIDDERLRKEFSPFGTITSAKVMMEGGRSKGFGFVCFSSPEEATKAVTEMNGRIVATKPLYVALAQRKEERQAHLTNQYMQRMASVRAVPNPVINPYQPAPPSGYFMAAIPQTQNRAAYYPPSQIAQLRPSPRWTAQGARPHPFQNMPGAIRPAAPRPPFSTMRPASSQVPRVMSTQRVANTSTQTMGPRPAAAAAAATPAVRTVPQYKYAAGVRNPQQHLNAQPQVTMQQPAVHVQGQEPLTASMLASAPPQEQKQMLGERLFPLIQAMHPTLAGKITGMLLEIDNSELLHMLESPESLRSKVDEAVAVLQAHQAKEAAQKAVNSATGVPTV
Chain of Mitochondrial peptide methionine sulfoxide reductase (P54149 whole entry): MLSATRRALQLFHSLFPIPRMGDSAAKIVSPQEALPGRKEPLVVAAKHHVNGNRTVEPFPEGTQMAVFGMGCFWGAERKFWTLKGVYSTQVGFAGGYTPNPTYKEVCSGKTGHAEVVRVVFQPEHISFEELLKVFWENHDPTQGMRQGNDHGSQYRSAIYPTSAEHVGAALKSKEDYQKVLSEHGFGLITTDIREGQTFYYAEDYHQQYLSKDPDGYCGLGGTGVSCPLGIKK
Chain of Melanocortin receptor 4 (P32245 whole entry): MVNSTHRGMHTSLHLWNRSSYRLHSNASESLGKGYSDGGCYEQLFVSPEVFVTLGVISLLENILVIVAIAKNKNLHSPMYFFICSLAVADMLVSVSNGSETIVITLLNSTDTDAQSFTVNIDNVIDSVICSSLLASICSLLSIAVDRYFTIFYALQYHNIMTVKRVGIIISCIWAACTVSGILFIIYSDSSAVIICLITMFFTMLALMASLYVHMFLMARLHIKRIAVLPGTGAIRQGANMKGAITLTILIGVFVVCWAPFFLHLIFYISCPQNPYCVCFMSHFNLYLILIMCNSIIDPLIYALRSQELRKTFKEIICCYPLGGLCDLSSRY
Chain of Genome polyprotein (P29990 2492-3391 limits assumed): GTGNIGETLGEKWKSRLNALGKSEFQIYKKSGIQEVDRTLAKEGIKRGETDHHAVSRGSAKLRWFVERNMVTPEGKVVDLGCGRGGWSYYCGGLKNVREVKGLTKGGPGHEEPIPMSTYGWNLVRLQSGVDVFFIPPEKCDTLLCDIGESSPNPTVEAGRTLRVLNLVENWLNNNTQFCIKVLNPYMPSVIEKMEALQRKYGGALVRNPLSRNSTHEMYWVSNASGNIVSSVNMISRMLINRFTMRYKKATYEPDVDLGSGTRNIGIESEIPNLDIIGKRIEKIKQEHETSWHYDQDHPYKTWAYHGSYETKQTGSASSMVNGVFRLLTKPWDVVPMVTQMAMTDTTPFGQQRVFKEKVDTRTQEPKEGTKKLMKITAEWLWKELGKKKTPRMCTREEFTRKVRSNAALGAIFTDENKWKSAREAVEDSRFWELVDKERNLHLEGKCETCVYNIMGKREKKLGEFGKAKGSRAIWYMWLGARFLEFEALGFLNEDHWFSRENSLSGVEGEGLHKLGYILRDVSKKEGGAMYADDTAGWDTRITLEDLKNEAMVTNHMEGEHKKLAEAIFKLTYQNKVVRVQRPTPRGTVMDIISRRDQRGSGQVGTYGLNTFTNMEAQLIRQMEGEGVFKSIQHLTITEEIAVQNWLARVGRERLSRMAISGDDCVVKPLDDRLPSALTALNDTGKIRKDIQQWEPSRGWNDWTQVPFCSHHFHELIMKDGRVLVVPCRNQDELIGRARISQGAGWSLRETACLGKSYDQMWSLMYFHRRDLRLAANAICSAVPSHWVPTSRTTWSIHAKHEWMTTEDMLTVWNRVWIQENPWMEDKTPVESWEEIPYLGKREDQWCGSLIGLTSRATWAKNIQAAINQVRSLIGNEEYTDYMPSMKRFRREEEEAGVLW
Chain of DNA dC->dU-editing enzyme APOBEC-3A (P31941 whole entry): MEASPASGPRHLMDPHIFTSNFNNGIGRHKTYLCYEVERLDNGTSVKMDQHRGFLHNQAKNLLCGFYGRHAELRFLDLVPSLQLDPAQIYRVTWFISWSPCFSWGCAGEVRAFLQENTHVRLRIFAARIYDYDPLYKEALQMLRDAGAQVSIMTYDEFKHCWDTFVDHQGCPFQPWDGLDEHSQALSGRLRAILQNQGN
Chain of Cytochrome P450 3A4 (P08684 whole entry): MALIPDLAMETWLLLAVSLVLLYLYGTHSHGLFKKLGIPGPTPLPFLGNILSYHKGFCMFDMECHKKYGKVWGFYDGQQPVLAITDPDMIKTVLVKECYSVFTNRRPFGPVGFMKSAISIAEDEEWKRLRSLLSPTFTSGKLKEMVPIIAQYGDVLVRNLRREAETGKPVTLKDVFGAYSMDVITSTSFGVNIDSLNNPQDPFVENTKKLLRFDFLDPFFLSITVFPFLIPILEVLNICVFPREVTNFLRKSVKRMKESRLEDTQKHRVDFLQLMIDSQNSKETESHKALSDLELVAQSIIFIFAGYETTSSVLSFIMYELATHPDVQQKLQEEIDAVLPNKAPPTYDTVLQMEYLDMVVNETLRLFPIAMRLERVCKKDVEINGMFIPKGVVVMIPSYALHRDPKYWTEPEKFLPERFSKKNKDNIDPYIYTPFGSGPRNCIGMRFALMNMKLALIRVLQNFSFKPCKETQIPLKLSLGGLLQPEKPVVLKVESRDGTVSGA
Chain of DNA dC->dU-editing enzyme APOBEC-3G (Q9HC16 whole entry): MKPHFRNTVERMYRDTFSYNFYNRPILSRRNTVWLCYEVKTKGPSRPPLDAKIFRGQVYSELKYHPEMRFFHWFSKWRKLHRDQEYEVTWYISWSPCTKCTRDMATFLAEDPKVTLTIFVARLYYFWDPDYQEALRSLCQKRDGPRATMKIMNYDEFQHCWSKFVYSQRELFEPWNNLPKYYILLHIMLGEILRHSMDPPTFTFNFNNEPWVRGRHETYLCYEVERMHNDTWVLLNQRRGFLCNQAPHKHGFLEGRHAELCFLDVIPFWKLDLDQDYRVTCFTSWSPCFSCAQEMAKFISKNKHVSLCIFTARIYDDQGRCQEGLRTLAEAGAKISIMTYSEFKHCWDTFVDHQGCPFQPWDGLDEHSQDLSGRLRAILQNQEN

Compound: COc1cccc(NC(=O)CSc2nc3c(c(=O)[nH]2)CCC3)c1
- CC50 [1]: > 100 µM (active)

Compound: O=C1c2ccccc2C(=O)c2c(/C=C/N3CCCCC3)ccnc21
- IC50 (Genome polyprotein): 61.6 µM (active)
- IC50 [2]: > 66 µM (inactive)
- EC50 [3]: > 104 µM (inactive)
- IC50 [4]: 50.2 µM (inactive)

Compound: O=C(CNCc1ccccn1)Nc1cc(C(F)(F)F)ccc1N1CCOCC1
- IC50 (Coagulation factor XII): > 50 µM (inactive)
- IC50 [5]: > 99 µM (inactive)
- IC50 [6]: > 99 µM (inactive)
- IC50 [7]: 138 µM (active)

Compound: COC(=O)C=C1CCC2C3CCC4=CC(=O)C(Br)CC4(C)C3C(=O)CC12C (centres undefined)
- CC50 (Vero): > 25 µM (active)
- IC50 (Melanocortin receptor 4): > 64.6 µM (inactive)
- IC50 [8]: > 64.6 µM (inactive)

Compound: COc1ccc2nc(N)sc2c1
- AC50 (Cytochrome P450 3A4): 31.6 µM (inconclusive)
- AC50 [9]: 44.7 µM (inconclusive)
